In patent publication US9351965B2, “Indazole derivatives useful as ERK inhibitors” (Merck Sharp & Dohme Corp., priority 2010, dated 2016):

Target: fully phosphorylated, active Mouse ERK2 protein (Mus musculus (Mouse), UniProt P63085)
Assay: Active ERK2 (aERK) IMAP assay
Type: biochemical
Conditions: IMAP fluorescence polarization; 30 μM ATP; 30 minute pre-incubation

Chain of fully phosphorylated, active Mouse ERK2 protein (P63085 whole entry): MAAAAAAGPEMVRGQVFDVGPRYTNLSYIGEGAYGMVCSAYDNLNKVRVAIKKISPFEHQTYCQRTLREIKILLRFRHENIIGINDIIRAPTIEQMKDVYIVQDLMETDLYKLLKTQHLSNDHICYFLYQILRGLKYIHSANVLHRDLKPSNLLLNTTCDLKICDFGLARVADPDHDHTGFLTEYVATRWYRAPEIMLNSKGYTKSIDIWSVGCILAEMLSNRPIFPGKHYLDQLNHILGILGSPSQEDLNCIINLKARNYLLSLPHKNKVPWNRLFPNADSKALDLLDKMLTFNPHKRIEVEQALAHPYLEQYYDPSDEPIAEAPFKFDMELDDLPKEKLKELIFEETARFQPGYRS

Structure (SMILES) | IC50
Cc1cc(-c2n[nH]c3ccc(C(=O)NC4CCCC(O)(C(F)(F)c5ccccc5)C4)cc23)ccn1 (centres unmarked) [compound 48, N-[3-(difluorophenylmethyl)-3-hydroxycyclohexyl]-3-(2-methyl-4-pyridinyl)-1H-indazole-5-carboxamide] | 106 nM
Cc1cc(-c2n[nH]c3ccc(C(=O)NC4CCCC(O)(C(O)c5ccccc5)C4)cc23)ccn1 (centres unmarked) [compound 49, N-[3-hydroxy-3-(hydroxyphenylmethyl)cyclohex-yl]-3-(2-methyl-4-pyridinyl)-1H-indazole-5-carboxamide (diasterimer 1)] | 25 nM
Cc1cc(-c2n[nH]c3ccc(C(=O)NC4CCCC(O)(C(O)c5ccccc5)C4)cc23)ccn1 (centres unmarked) [compound 50, N-[3-hydroxy-3-(hydroxyphenylmethyl)cyclohex-yl]-3-(2-methyl-4-pyridinyl)-1H-indazole-5-carboxamide (diasterimer 2)] | 47.5 nM
Cc1cc(-c2n[nH]c3ccc(C(=O)NC4CCCC(O)(C(O)c5ccccc5)C4)cc23)ccn1 (centres unmarked) [compound 51, N-[3-hydroxy-3-(hydroxyphenylmethyl)cyclohex-yl]-3-(2-methyl-4-pyridinyl)-1H-indazole-5-carboxamide (diasterimer 3)] | 204 nM
Cc1cc(-c2n[nH]c3ccc(C(=O)NC4CCCC(O)(C(=O)c5ccccc5)C4)cc23)ccn1 (centres unmarked) [compound 53, N-(3-benzoyl-3-hydroxycyclohexyl)-3-(2-methyl-4-pyridinyl)-1H-indazole-5-carboxamide] | 258 nM
Cn1cc2cc(-c3n[nH]c4ccc(C(=O)NC5CCCC(Cn6ccnc6)C5)cc34)ccc2n1 (centres unmarked) [compound 108, N-[3-(1H-imidazol-1-ylmethyl)cyclohexyl]-3-(2-methyl-2H-indazol-5-yl)-1H-indazole-5-carboxamide] | 29.3 nM
Cn1cc2cc(-c3n[nH]c4ccc(C(=O)NC5CCCC(Cn6cnc7ccccc76)C5)cc34)ccc2n1 (centres unmarked) [compound 109, N-[3-(1H-benzimidazol-1-ylmethyl)cyclohexyl]-3-(2-methyl-2H-indazol-5-yl)-1H-indazole-5-carboxamide] | 21.1 nM

Other lines, results leading:

IC50 | Structure (SMILES)
294 nM | Cc1cc(-c2n[nH]c3ccc(C(=O)NC4CCCC(O)(C(O)c5ccccc5)C4)cc23)ccn1 (centres unmarked) [compound 52, N-[3-hydroxy-3-(hydroxyphenylmethyl)cyclohex-yl]-3-(2-methyl-4-pyridinyl)-1H-indazole-5-carboxamide (diasterimer 4)]
988 nM | Cc1cc(-c2n[nH]c3ccc(C(=O)N[C@@H]4CCC[C@](O)(Cn5ncc6ccccc65)C4)cc23)ccn1 [compound 65, N-[3(R)-hydroxy-3-(1H-indazol-1-ylmethyl)-1(R)-cyclohexyl]-3-(2-methyl-4-pyridinyl)-1H-indazole-5-carboxamide]
7 nM | Cc1cc(-c2n[nH]c3ccc(C(=O)N[C@@H]4CCC[C@@](O)(Cn5ncc6ccccc65)C4)cc23)ccn1 [compound 66, N-[3(S)-hydroxy-3-(1H-indazol-1-ylmethyl)-1(R)-cyclohexyl]-3-(2-methyl-4-pyridinyl)-1H-indazole-5-carboxamide]
821 nM | Cc1cc(-c2n[nH]c3ccc(C(=O)N[C@@H]4CCC[C@@](O)(Cn5c(C(F)(F)F)nc6ccccc65)C4)cc23)ccn1 [compound 68]
53 nM | Cc1cc(-c2n[nH]c3ccc(C(=O)N[C@H]4CCC[C@@](O)(Cn5c(C)nc6ccccc65)C4)cc23)ccn1 [compound 69, N-[trans-3-hydroxy-3-[(2-methyl-1H-benzimidazol-1-yl)methyl]cyclohexyl]-3-(2-methyl-4-pyridinyl)-H-indazole-5-carboxamide]
332 nM | Cc1cc(-c2n[nH]c3ccc(C(=O)N[C@H]4CCC[C@](O)(Cn5c(C)nc6ccccc65)C4)cc23)ccn1 [compound 70]
1000 nM | O=C(N[C@@H]1CCC[C@@](O)(Cn2ncc3ncccc32)C1)c1ccc2[nH]nc(-c3ccc4nccn4c3)c2c1 [compound 86, N-[cis-3-hydroxy-3-(1H-pyrazolo[4,3-b]pyridN-1-ylmethyl)cyclohexyl]-3-imidazo[1,2-a]pyridiN-6-yl-1H-indazole-5-carboxamide]
